Consider 24 molecules from ChEMBL document CHEMBL3046115, “Modification and biological evaluation of novel 4-hydroxy-pyrone derivatives as non-peptidic HIV-1 protease inhibitors” (Med Chem Res, 2011).

SMILES strings stand for the structures. Active and inactive are the calls of the source. The rule behind the calls is not given here. Where only a bound is given, the exact number is not on record here.

The target of one data set is Protease (Human immunodeficiency virus 1, UniProt Q9YQ12). Briefly: Inhibition of Human immunodeficiency virus 1 protease using Lys-Ala-Arg-Val-Leu-Phe(NO2)-Glu-Ala-Met as substrate.
Data set [1] has as its system Simian immunodeficiency virus. Briefly: Antiviral activity against Simian immunodeficiency virus infected CEM174 cells assessed as inhibition of viral-induced syncytium formation after 5 days by microscopic analysis. The data set is classed as functional, organism-based. As to conditions: CEM174, 120 h.
Data set [2] is described as follows: Cytotoxicity against Homo sapiens (human) CEM174 cells. It is filed as cell-based. As to conditions: read-out: TC50 (the source's name).
Data set [3] is described as follows: Therapeutic index, ratio of TC50 for human CEM174 cells to EC50 for SIV infected in human CEM174 cells. The data set is classed as cell-based. As to conditions: CEM174 cells (uninfected for TC50, SIV-infected for EC50), read-out: TI.
The target of data set [4] is Protease (Human immunodeficiency virus 1) (UniProt Q9YQ12). Put plainly: Inhibition of Human immunodeficiency virus 1 protease expressed in human 293T cells cotransfected with pGAGPOL and pGAG assessed as Gagp24 protein expression after 48 hr by Western blot analysis. It is filed as cell-based. (In general: A western blot detects proteins with antibodies after separation by electrophoresis.)
Chain of Protease (Human immunodeficiency virus 1) (Q9YQ12 as listed by the source): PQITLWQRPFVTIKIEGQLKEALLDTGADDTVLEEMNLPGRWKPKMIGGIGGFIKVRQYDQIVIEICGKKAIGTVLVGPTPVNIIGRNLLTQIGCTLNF

Chain of Protease (Q9YQ12 whole entry): as the sequence (Q9YQ12 as listed by the source) above

For `Cc1ccc(C(C)C)c(SC2=C(O)CC(CCc3ccccc3)(C(C)C)OC2=O)c1` (centres undefined), 1.1 nM corresponded to half-maximal inhibition against Protease (IC50). In data set [1], the EC50 (as a rule, the concentration giving half of the maximal effect) was determined as 15000 nM. As for `O=C(O)CCCCC1(CCc2ccccc2)CC(O)=C(SCCc2ccccc2)C(=O)O1` (centres undefined), the midpoint of inhibition against Protease, the IC50, lay at 5 nM. As for `CC(C)(C)NC(=O)[C@@H]1CN(Cc2cccnc2)CCN1C[C@@H](O)C[C@@H](Cc1ccccc1)C(=O)N[C@H]1c2ccccc2C[C@H]1O`, in data set [1], the concentration for a half-maximal effect (EC50) is less than 100 nM. Moreover, the CC50 in data set [2] was greater than 100000 nM. The selectivity ratio in data set [3] is greater than 1000. Take `Cc1ccc(C)c(SC2=C(O)CC(COc3cccc4ccccc34)(c3ccccc3)OC2=O)c1` (racemic): at Protease, inhibition was half-maximal at 126 nM (IC50).

For `CCOc1ccc(OCC)c(SC2=C(O)CC(COc3cccc4ccccc34)(c3ccccc3)OC2=O)c1` (racemic), the IC50 (usually the midpoint of a concentration-inhibition curve) on Protease was determined as 3.5 nM. Also, the inhibition entry in data set [4] is “Active”. The molecule `O=C1OC(COc2cccc3ccccc23)(c2ccccc2)CC(O)=C1SCc1ccccc1` (racemic) yielded an IC50 at Protease of 128 nM. Same read-out and setting: the result for `O=C1OC(COc2ccc3ccccc3c2)(c2ccccc2)CC(O)=C1Sc1ccccc1` (racemic) reads 126 nM. The same measure, in the same setting: the result for `Cc1ccccc1SC1=C(O)CC(COc2ccc3ccccc3c2)(c2ccccc2)OC1=O` (racemic) reads 61 nM.

Regarding `CCc1ccccc1SC1=C(O)CC(COc2ccc3ccccc3c2)(c2ccccc2)OC1=O` (racemic), half-maximal inhibition on Protease (IC50) required 22 nM. The same measure, in the same setting: for `O=C1OC(COc2ccc3ccccc3c2)(c2ccccc2)CC(O)=C1Sc1ccccc1Cl` (racemic) the value was 89 nM; for `Cc1ccc(C)c(SC2=C(O)CC(COc3ccc4ccccc4c3)(c3ccccc3)OC2=O)c1` (racemic), 65 nM. In turn, `CCOc1ccc(OCC)c(SC2=C(O)CC(COc3ccc4ccccc4c3)(c3ccccc3)OC2=O)c1` (racemic) came in with an IC50 against Protease of 9.2 nM. For the same molecule, the inhibition result in data set [4] is “Active”. At Protease, `O=C1OC(COc2ccc3ccccc3c2)(c2ccccc2)CC(O)=C1SCc1ccccc1` (racemic) showed an IC50 of 73 nM. Still for that read-out and setting: the result for `O=C1OC(CSc2ccccc2)(c2ccccc2)CC(O)=C1Sc1ccccc1` (racemic) reads 258 nM; that for `Cc1ccccc1SC1=C(O)CC(CSc2ccccc2)(c2ccccc2)OC1=O` (racemic), 240 nM.

With `CCc1ccccc1SC1=C(O)CC(CSc2ccccc2)(c2ccccc2)OC1=O` (racemic), the IC50 on Protease came to 238 nM. `O=C1OC(CSc2ccccc2)(c2ccccc2)CC(O)=C1Sc1ccccc1Cl` (racemic) displayed an IC50 against Protease of 70 nM. On the same count and under the same terms, the result for `Cc1ccc(C)c(SC2=C(O)CC(CSc3ccccc3)(c3ccccc3)OC2=O)c1` (racemic) reads 196 nM. Still for that read-out and setting: for `CCOc1ccc(OCC)c(SC2=C(O)CC(CSc3ccccc3)(c3ccccc3)OC2=O)c1` (racemic) the value was 24 nM.

In turn, `O=C1OC(CSc2ccccc2)(c2ccccc2)CC(O)=C1SCc1ccccc1` (racemic) displayed an IC50 on Protease of 32 nM.

`O=C1OC(COc2cccc3ccccc23)(c2ccccc2)CC(O)=C1Sc1ccccc1` (racemic) registered an IC50 on Protease of 159 nM. Regarding `Cc1ccccc1SC1=C(O)CC(COc2cccc3ccccc23)(c2ccccc2)OC1=O` (racemic), it took 64 nM to reach half-maximal inhibition on Protease (IC50). Molecule `CCc1ccccc1SC1=C(O)CC(COc2cccc3ccccc23)(c2ccccc2)OC1=O` (racemic) registered an IC50 against Protease of 100 nM. The same measure, in the same setting: the result for `O=C1OC(COc2cccc3ccccc23)(c2ccccc2)CC(O)=C1Sc1ccccc1Cl` (racemic) reads 59 nM.
